From US20250090576A1, “METHODS FOR TREATING NONTUBERCULOUS MYCOBACTERIA DISEASES” (Microbion Corporation, priority 2022, published 2025)
≈ marks a conversion by molar mass, not a printed value. Like-named read-outs stand apart in the source and are kept apart here.

Key:
[1] = system: M. abscessus MABS4 biofilm; test: MBEC assay (minimum biofilm eradication concentration); assay type: cell-based; conditions: 18 h challenge
Excerpt: (§1) In this study the MBEC assay was followed as described in the Innovotech Procedural Manual, version 2.1 with minor modifications to assess the antibiofilm activity of the antimicrobial compounds under investigation. The MBEC value refers to the Minimum Biofilm Eradication Concentration of each antimicrobial for each strain. The MBEC value is defined as the minimum antibiotic concentration where the optical density (OD) value at recovery is less than 10% of the control OD value and there is no growth observed with visual examination of the wells.
(§2) Step 1: Inoculation. For resuscitation, all strains were streaked on TSA plates, except for the mycobacteria which were streaked on 7H10 media, from the frozen stocks, and grew overnight at 37° C. (Table 6). From the plate, one colony was picked for inoculation in organism specific medium (OSM) and grown in a shaker incubator at 37° C. at 225 RPM until mid-log phase (OD 0.2-0.8). At mid log phase the culture was diluted in OSM medium (Table 6) to an OD of 0.05. 150 μL of it were aliquoted in each corresponding well in a 96-well MBEC plate (inoculation plate). Subsequently, the MBEC plates were incubated static at 37° C. for the appropriate time for each species (Table 7). During incubation, biofilm formed on the pegs.
(§3) Step 2: Challenge. Following incubation, the peg lid with the biofilm was washed twice in PBS and placed on a second 96-well plate with 200 μl of antibiotic dilutions (challenge plate). The challenge plate was then incubated at 37° C. for 18 h to allow exposure of the biofilm to antibiotics.
(§4) Step 3: Recovery. In the final step, the peg lid (with the biofilm after treatment with the antibiotics) was washed again twice in PBS and placed on a third 96-well plate (recovery plate) with 200 μl growth medium in each well to allow growth of any bacterial cells resistant to antibiotics at any concentration. The recovery of resistant cells was assessed by an end-point measurement of the optical density at 600 nm (OD600) for each well with a plate reader (FIG. 4).

[2] = system: M. abscessus MABS2 biofilm; test: as above; assay type: cell-based; conditions: 18 h challenge
Excerpt: as §1, §2, §3, §4

[3] = system: M. abscessus MABS1 biofilm; test: as above; assay type: cell-based; conditions: 18 h challenge
Excerpt: as §1, §2, §3, §4

[4] = system: M. abscessus MABS7 biofilm; test: as above; assay type: cell-based; conditions: 18 h challenge
Excerpt: as §1, §2, §3, §4

[5] = system: M. abscessus MABS11 biofilm; test: as above; assay type: cell-based; conditions: 18 h challenge
Excerpt: as §1, §2, §3, §4

[6] = system: M. abscessus MABS9 biofilm; test: as above; assay type: cell-based; conditions: 18 h challenge
Excerpt: as §1, §2, §3, §4

[7] = system: CF patient strain DNA00133; test: MIC broth dilution, growth by turbidity/OD 595 nm; assay type: cell-based, M. avium; conditions: for MIC: Mycobacterium avium
Protocol: Mycobacteria strains were used to determine MICs of BisEDT and amikacin. Strains included cystic fibrosis patient isolates from National Jewish Hospital. A range of high dose to low dose of antibiotics was used to determine bacteria susceptibility. M. avium strain 104, M. avium strain 3388, and CF patient strain DNA00133 were grown to log phase (7 days) while M. abscessus strain 19977, CF patient strain DNA00703, and CF patient strain DNA01715 achieved log phase (4 days) on 7H10 middlebrook media plates supplemented with 10% OADC (Oleic acid, Albumin, Dextrose, Catalase). […] For BisEDT, two types of compound physical states were tested. First, BisEDT was solubilized in DMSO (furthermore labeled soluble BisEDT). Second, BisEDT was made in suspension to mimic in vivo studies (furthermore labeled insoluble BisEDT). […] Control tubes containing no antibiotics were also included for each antibiotic tested. Inoculums of […] bacteria for each strain was measured with optical density (O.D.) at 595 nm. 10 μl of these inoculums were added to each antibiotic tube and incubated in a shaking incubator at 37° C. and 200 rpm. Slow growing stains were measured for growth after 10 days incubation while fast growing strains were incubated for 5 days. After incubation, 100 μl from each tube was pulled and placed in a 96-well plate for O.D. reading. Turbidity determined sensitive, intermediate, or resistant bacteria.

[8] = system: M. abscessus MABS1; test: MIC (Table 8); assay type: cell-based; conditions: Mycobacteroides abscessus
[9] = system: M. abscessus cystic fibrosis patient strain 00703 in THP-1 macrophages; test: Mycobacterial survival (CFU) in infected THP-1 macrophages; assay type: cell-based; conditions: CF patient strain 00703; after 3 days; drugs at MIC
Protocol: (§5) THP-1 macrophages were differentiated with 50 ng/ml PMA for 24 hours, followed by 24 hours in media prior to infection. Differentiated THP-1 macrophages were either infected with M. avium strains or M. abscessus strains for 1 hour with an multiplicity of infection (MOI) of 5 or uninfected. Cells were washed twice, followed by 1 hour of antibiotic treatment with 200 μg/ml of amikacin to remove extracellular bacteria. After the antibiotic step, cells were washed once more and BisEDT (BIZ) or amikacin was added once to selected wells (see in vitro doses below).
(§6) The treatments included: vehicle, amikacin, Soluble BisEDT (S Biz), Insoluble BisEDT (I Biz), and amikacin+BisEDT. The time points for sample preparation were 72 h for M. abscessus strains and 4- and 7-days post infection for M. avium strains. At the indicated timepoints cell media was removed and replaced with 400 ul of 0.1% triton x-100 in H2O for lysis. Wells were pipetted 25 times to disrupt cells then diluted and plated for CFU enumeration.

[10] = system: M. abscessus cystic fibrosis patient strain 01715 in THP-1 macrophages; test: as above; assay type: cell-based; conditions: CF patient strain 01715; after 3 days; drugs at MIC
Protocol: as §5, §6

[11] = system: M. avium strain 104 (MAH 104) in THP-1 macrophages; test: as above; assay type: cell-based; conditions: 4-day and 7-day, drugs at MIC
Protocol: as §5, §6

[12] = system: M. abscessus strain 19977 in THP-1 macrophages; test: as above; assay type: cell-based; conditions: after 3 days, drugs at MIC
Protocol: as §5, §6

[13] = system: M. abscessus MABS7; test: MIC (Table 8); assay type: cell-based; conditions: Mycobacteroides abscessus
[14] = system: M. abscessus biofilm (six clinical isolates); test: MBEC assay, summary over six clinical isolates; assay type: cell-based; conditions: at high concentrations (amikacin, clarithromycin: apart from MABS4)
Excerpt: as §1, §2, §3
Step 3: Recovery. […] The recovery of resistant cells was assessed by an end-point measurement of the optical density at 600 nm (OD600) for each well with a plate reader (FIG. 4).
This is possibly, in part, due to the variable clumping of the cells observed in the biofilm biomass on the pegs. The clumping of the cells also impacted the OD readings. […] For replicate experiments with variable results, the final MBEC values were determined based on the higher MBEC concentration observed among the replicates.

NCC[C@H](O)C(=O)N[C@@H]1C[C@H](N)[C@@H](O[C@H]2O[C@H](CN)[C@@H](O)[C@H](O)[C@H]2O)[C@H](O)[C@H]1O[C@H]1O[C@H](CO)[C@@H](O)[C@H](N)[C@H]1O [amikacin]
MBEC [1]: 8 µg/mL
MBEC ([1]; listed as Amikacin): <8 µg/mL
MBEC [2]: >512 µg/mL
MBEC [3]: >128 µg/mL
MBEC [4]: >16 µg/mL
MBEC [5]: >16 µg/mL
MBEC [6]: >64 µg/mL
Sensitivity phenotype (R/I/S) ([7]; 1 μg/mL): R
Sensitivity phenotype (R/I/S) ([7]; 2 μg/mL): R
Sensitivity phenotype (R/I/S) ([7]; 4 μg/mL): R
Sensitivity phenotype (R/I/S) ([7]; 8 μg/mL): R
Sensitivity phenotype (R/I/S) ([7]; 16 μg/mL): R
Sensitivity phenotype (R/I/S) ([7]; 32 μg/mL): R
Sensitivity phenotype (R/I/S) ([7]; 64 μg/mL): R
Sensitivity phenotype (R/I/S) ([7]; 128 μg/mL): R
MIC [7]: > 128 µg/mL
MIC ([7]; M. avium strain 1333 (Table 3), read-out: MIC determined for the strain, used for treatment of infected macrophages): 8 µg/mL (≈ 13.7 µM)
MIC [8]: 16 µg/mL (≈ 27.3 µM)
mycobacterial survival (CFU, bacterial load) in THP-1 macrophages, in words [9]: bacteriostatic
mycobacterial survival (CFU, bacterial load) in THP-1 macrophages, in words [10]: bacteriostatic
mycobacterial survival (CFU, bacterial load) in THP-1 macrophages, in words [11]: greatly reduced the bacteria load
mycobacterial survival (CFU, bacterial load) in THP-1 macrophages, in words [12]: somewhat reduced CFU counts from initial infection rates, but the difference was not significant
MIC [13]: 2 µg/mL (≈ 3.42 µM)
biofilm susceptibility, in words [14]: resistance
